This note sets out measurements from US20230263798A1, “COMPOSITIONS AND METHODS FOR TREATING THERAPY RESISTANT CANCER” (The General Hospital Corporation, priority 2020, published 2023).

Test [1] concerns METTL3. As to the kind of experiment: Western blot of METTL3 in BT549 cells. It is filed as cell-based. As to conditions: over time of treatment. A general note: In western blotting, separated proteins are transferred to a membrane and probed.
The subject of a further test is HuR. As to the kind of experiment: Western blot of HuR. It is filed as cell-based. As to conditions: over time of doxorubicin treatment. An excerpt:
Western blot is shown of other RNA binding proteins that increase in mass spectrometry data. […] FIGS. 6J and 6K show Hexim, PPM1G and HuR increase in chemotreated patient samples and on doxorubicin treatment.

In the next test the test system is METTL3 mRNA. The experiment in a line: METTL3 mRNA level and translation (qPCR, polysome fractionation, nascent amino acid labeling). It is filed as cell-based. The procedure:
(§1) Tubulin and Histone serve as Western blot loading controls. Data are average of 3 replicates +/-SEM. See also FIGS. 4A-4H.
(§2) Actin and Tubulin are loading controls for Western blots. Data are average of 3 replicates +/-SEM.
To verify that the increase in METTL3 was at the translation level, polysome analysis was conducted first. […] We next verified increased polysome association of METTL3 mRNA with Y10B antibody immunoprecipitation in doxorubicin treated and in Sal003 cells compared to buffer treated cells (FIGS. 3I and 4F).
A general note: Quantitative PCR measures a nucleic acid by following its amplification.

The subject of a further test is PARP1. The experiment in a line: Western blot analysis of PARP1. It is filed as cell-based. As to conditions: treated cells. On the procedure:
(§3) FIGS. 8C and 8D show Western blot analysis of PARP1, phospho-elF2α, METTL3 with doxorubicin or Sal003 treatment. […] 500 nM Doxorubicin treated MCF7 cells were co-treated with 6uM of Enzastaurin or DMSO buffer. […] Data are average of 3 replicates +/-SEM.
Consistently, doxorubicin treated cells are sensitive to PARP inhibitors, such as Talazoparib (BMN-673, FIG. 8B).

The subject of test [2] is METTL3. As to the kind of experiment: Western blot of METTL3 in patient-derived xenografts treated in vivo. Conditions: hormone positive breast cancer patient derived xenografts, 2-1 0 mg/kg doxorubicin in vivo.
Test [3] has as its system METTL3. As to the kind of experiment: Western blot analysis of METTL3 in MCF7 cells. It is filed as cell-based. As to conditions: MCF7 cells, agent alone vs untreated/buffer, Western blot.
Excerpt: (§4) The Western blot includes samples with control shRNA or shMETTL3. […] Tubulin and Histone serve as Western blot loading controls. Data are average of 3 replicates +/-SEM. See also FIGS. 2A-2G.
(§5) Data are average of 3 replicates +/-SEM. Tubulin serves as the loading control.
as §1, §2, §3
To determine the mechanisms of specific mRNA expression in chemosurviving cancer cells, we examined RNA binding regulators in chemosurviving MCF7 breast cancer cells, isolated after doxorubicin chemotherapy treatment.

A further test concerns m6A on RNA. The experiment in a line: m6A on ribosomal RNA depleted RNA (dot blot, 2D-TLC). Type of test: cell-based. As to conditions: ribosomal RNA depleted RNA from treated vs untreated MCF7 cells; dot blot or 2D-TLC. On the procedure:
The Western blot includes samples with control shRNA or shMETTL3. […] Tubulin and Histone serve as Western blot loading controls. Data are average of 3 replicates +/-SEM. See also FIGS. 2A-2G. […]
To test whether the increased m6A modification enzymes lead to increased m6A modification on RNA, ribosomal RNA depleted RNA from doxorubicin treated cells compared to untreated cells by dot blot analyses was tested. […] Consistent with decreased METTL3 upon knockdown, the dot blot signal is depleted when METTL3 is knocked down (FIG. 1B). Second, RNA from doxorubicin treated cells for m6A by two-dimensional-thin layer chromatography separation (2D-TLC) was performed (H. Grosjean, G. Keith, L. Droogmans, Detection and quantification of modified nucleotides in RNA using thin-layer chromatography. Methods in molecular biology (Clifton, N.J.) 265, 357-391 (2004)).

For a further test, the system named is METTL14. The experiment in a line: Western blot of METTL14 in breast cancer patient samples grown as tumor spheres. It is filed as cell-based.
The test system of test [4] is phospho-elF2α. The experiment in a line: Western blot of elF2α phosphorylation in MCF7 cells. It is filed as cell-based. Conditions: MCF7 cells, agent alone, Western blot. On the procedure:
as §3

The subject of test [5] is phospho-elF2α. The experiment in a line: Western blot of elF2α phosphorylation in BT549 cells. It is filed as cell-based. As to conditions: over time of treatment. The procedure: as §5
To determine the mechanisms of specific mRNA expression in chemosurviving cancer cells, we examined RNA binding regulators in chemosurviving MCF7 breast cancer cells, isolated after doxorubicin chemotherapy treatment. […] The increase observed is transient and is not observed at 48 h of treatment (FIG. 2A).

For test [6], the system named is METTL3. The experiment in a line: Western blot of METTL3 in breast cancer patient samples grown in 3D cultures. Type of test: cell-based. As to conditions: hormone positive breast cancer patient samples grown as tumor spheres.
Excerpt: as §4
As METTL3 increases in chemosurviving cells and increases m6A on RNA, we tested whether METTL3 increase is needed for chemosurvival by depleting METTL3 or overexpressing METTL3 or a catalytically defective METTL3 (CD-M3) mutant and then tested these cells for doxorubicin survival.

The test system of a further test is METTL3 5′UTR. The experiment in a line: Firefly luciferase reporter bearing the 5′UTR of METTL3. It is filed as cell-based. As to conditions: doxorubicin treated vs untreated cells, normalized to Renilla. From the text: FIGS. 5A-5I show HuR and associated translation initiation factors promote METTL3 translation in doxorubicin resistant cells. […] Tubulin is the loading control for Western blots. Data are average of 3 replicates +/-SEM. See also FIGS. 6A-6K.
To test if METTL3 mRNA encodes for cis-acting elements that direct its translation upregulation in doxorubicin-treated cells, we constructed Luciferase reporters bearing METTL3 mRNA 5′UTR and 3′UTR, or their reverse sequences or vector sequence as controls. We tested these reporters and their controls in untreated and doxorubicin treated cells. […] Importantly, RNA levels of the 5′UTR reporter remained unaffected between doxorubicin treated compared to untreated cells, and compared to reverse or vector reporters, indicating translation control.

As for `COc1cccc2c1C(=O)c1c(O)c3c(c(O)c1C2=O)C[C@@](O)(C(=O)CO)C[C@@H]3O[C@H]1C[C@H](N)[C@H](O)[C@H](C)O1` [doxorubicin], the METTL3 level entry was “transient increase” with METTL3 [1], “increases” in the test with METTL3 [2], “increases” in the test on METTL3 [3] and “increased” with METTL3 [6]. In the test on HuR, the HuR level entry was “increase”. The “labeled (newly translated) METTL3, nascent translation assay” value in the test on METTL3 mRNA (Click-it Puro labeling, METTL3 immunoprecipitation, treated vs untreated) is given as “increase”. In addition, the “METTL3 and METTL14 RNA levels by qPCR” value in the test on METTL3 mRNA (doxorubicin treated vs untreated cells) is listed as “no increase”. Further, the “METTL3 mRNA on polysomes compared to monosomes” value in the test on METTL3 mRNA (treated vs buffer treated cells, polysome fractionation and qPCR) was “increased”. Also, the PARP1 level entry with PARP1 is listed as “increases”. The “m6A on RNA” value in the test on m6A on RNA is on record as “more m6A modified RNA”. For the same molecule, the METTL14 level entry in the test with METTL14 was “Increase”. In addition, the elF2α phosphorylation result is listed as “phosphorylated over time” in the test with phospho-elF2α [4] and “transient increase” in the test with phospho-elF2α [5]. Besides, the “METTL3 5′UTR luciferase reporter translation” value in the test on METTL3 5′UTR is “enhanced translation”.
